Data: patent US6608082B1, “Treatment of erectile dysfunction using isoquinoline compound melanocortin receptor ligands” (Lion Bioscience AG, priority 1998, dated 2003)
Where two headings read alike, the source gives them in different places. Values belong to the compound of their own block, whether it stands above or below them.

Key:
MCR-1 = biological target: T1, MCR-1 (Homo sapiens, UniProt Q01726); assay: Melanocortin receptor binding assay, competition with 125I-HP 467, HEK 293 cells expressing hMCR-1; settings: for IC50: read-out: MC-1 IC50; for % Disp. MC-1 10 μM: displacement of 125I-HP 467 at 10 μM isoquinoline compound
T1 construct: expressed in transfected cells; host or cells: HEK 293
Procedure, shortened: (§1)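 Intact-cell competition binding, 2.5 hr at 37 °C, in PBS/10% calf serum/1 mM CaCl2; hMCR-4 cells at 4×10^3 per tube, hMCR-1 cells at 2×10^4 per tube. Filtration on BSA/CaCl2-soaked GF/B, cold 50 mM Tris pH 7.4 washes, scintillation count.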

MCR-4 = biological target: T2, MCR-4 (Homo sapiens, UniProt P32245); assay: Melanocortin receptor binding assay, competition with 125I-HP 467, HEK 293 cells expressing hMCR-4; settings: read-out: MC-4 IC50
T2 construct: expressed in transfected cells; host or cells: HEK 293
Procedure, shortened: as §1

[1] = inhibition of binding of 125I-HP 467, HEK 293 cells expressing MCR-1, TRG 2414 library
[2] = inhibition of binding of 125I-HP 467, HEK 293 cells expressing MCR-4, TRG 2414 library
[3] = competition with 125I-HP 467, HEK 293 cells expressing MCR-1
[4] = competition with 125I-HP 467, HEK 293 cells expressing MCR-4
[5] = TRG 2408 and TRG 2409 libraries, inhibition of 125I-HP 467 binding
[6] = inhibition of binding of 125I-HP 467, HEK 293 cells expressing MCR-1
[7] = inhibition of binding of 125I-HP 467, HEK 293 cells expressing MCR-4
[8] = TRG 2406 and TRG 2407 libraries, inhibition of binding of 125I-HP 467

T1 sequence (Q01726 whole entry): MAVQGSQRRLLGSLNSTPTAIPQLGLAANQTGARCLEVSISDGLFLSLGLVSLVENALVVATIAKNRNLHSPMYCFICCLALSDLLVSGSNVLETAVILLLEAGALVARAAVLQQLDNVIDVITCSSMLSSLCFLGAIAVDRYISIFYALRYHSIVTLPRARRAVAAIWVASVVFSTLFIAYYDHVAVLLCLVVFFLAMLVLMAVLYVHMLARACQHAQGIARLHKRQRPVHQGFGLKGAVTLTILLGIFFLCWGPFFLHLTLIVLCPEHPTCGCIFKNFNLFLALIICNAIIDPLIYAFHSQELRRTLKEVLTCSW
T2 sequence (P32245 whole entry): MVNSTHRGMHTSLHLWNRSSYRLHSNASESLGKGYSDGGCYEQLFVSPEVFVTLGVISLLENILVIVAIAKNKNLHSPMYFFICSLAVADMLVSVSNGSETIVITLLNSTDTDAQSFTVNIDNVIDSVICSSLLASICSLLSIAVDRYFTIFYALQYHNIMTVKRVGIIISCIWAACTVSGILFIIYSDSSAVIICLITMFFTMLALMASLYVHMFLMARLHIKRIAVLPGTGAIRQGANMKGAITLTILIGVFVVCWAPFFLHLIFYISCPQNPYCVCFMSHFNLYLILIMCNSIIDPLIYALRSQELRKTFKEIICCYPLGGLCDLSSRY

IC50 (MCR-1; [1]): 2.73 µM
IC50 (MCR-4; [2]): 22.6 µM
Structure (SMILES): CCCOc1ccc(C2C(CNCc3ccccc3C(F)(F)F)c3ccccc3CN2CCCCC(CN)NCc2ccccc2)cc1 (stereo not drawn) [TRG 2414-163]

IC50 (MCR-1; [3]): 0.09 µM
IC50 (MCR-4; [4]): 1.17 µM
Structure (SMILES): CCCCNc1ccc(C2C(CN)c3ccccc3CN2CCCCC(CN)NCCCC)cc1 (stereo not drawn) [TRG 2411-102]

IC50 (MCR-1; [5]): 1.94 µM
IC50 (MCR-4; [5]): 5.87 µM
Structure (SMILES): NC[C@H](CCCN1Cc2ccccc2C(CNC2CCCCC2)C1c1ccc(Cl)cc1Cl)NCCc1ccccc1 (stereo partly drawn) [TRG 2408-72]

Structure (SMILES): CCNc1ccc(C2C(CNCCc3ccccc3)c3ccccc3CN2CCCC(CN)NCCCCNCc2ccccc2)cc1 (stereo not drawn) [TRG 2419-3]
IC50 (MCR-1; [6]): 0.049 µM
IC50 (MCR-4; [7]): 2.15 µM

IC50 (MCR-1; [1]): 33.5 µM
IC50 (MCR-4; [2]): 38.8 µM
Structure (SMILES): CCOc1ccccc1CNCC1c2ccccc2CN(CCCCC(CN)NCC(C)c2ccc(CC(C)C)cc2)C1c1cc(C(F)(F)F)cc(C(F)(F)F)c1 (stereo not drawn) [TRG 2414-48]

Structure (SMILES): CCNc1ccc(C2C(CNCCc3ccccc3)c3ccccc3CN2CCCC(CN)NCc2ccccc2CNC(C)C)cc1 (stereo not drawn) [TRG 2420-13]
IC50 (MCR-1; [6]): 0.065 µM
IC50 (MCR-4; [7]): 0.67 µM

IC50 (MCR-1; [5]): 1.3 µM
IC50 (MCR-4; [5]): 44.5 µM
Structure (SMILES): CCNc1ccc(C2C(CNC3CCCCC3)c3ccccc3CN2CCCCC(CN)NCCN)cc1 (mixture of isomers) [TRG 2408-7]

IC50 (MCR-1; TRG 2414 library, inhibition of binding of 125I-HP 467, HEK 293 cells expressing MCR-1): 0.869 µM
IC50 (MCR-4; TRG 2414 library, inhibition of binding of 125I-HP 467, HEK 293 cells expressing MCR-4): 2.31 µM
Structure (SMILES): CCCOc1ccc(C2C(CNCc3ccccc3)c3ccccc3CN2CCCCC(N)CN)cc1 (stereo not drawn) [Cmpd 189]

IC50 (MCR-1; [1]): 1.26 µM
IC50 (MCR-4; [2]): 0.73 µM
Structure (SMILES): COc1ccccc1CCNCC1c2ccccc2CN(CCCCC(N)CN)C1c1cccc(Oc2ccccc2)c1 (stereo not drawn) [TRG 2414-89]

IC50 (MCR-1; [6]): 2.39 µM
IC50 (MCR-4; [7]): 5 µM
Structure (SMILES): CCCCOc1ccc(C2C(CO)c3ccccc3CN2CCCC(CN)NCCC2CCCCC2)cc1 (stereo not drawn) [TRG 2415-6]

IC50 (MCR-1; [1]): 7.74 µM
IC50 (MCR-4; [2]): 7.51 µM
Structure (SMILES): CCOc1ccccc1CNCC1c2ccccc2CN(CCCCC(CN)NCc2ccccc2)C1c1cc(C(F)(F)F)cc(C(F)(F)F)c1 (stereo not drawn) [TRG 2414-47]

IC50 (MCR-1; [3]): 0.12 µM
IC50 (MCR-4; [4]): 1.32 µM
Structure (SMILES): CCCCNc1ccc(C2C(CN)c3ccccc3CN2CCCC(CN)NCc2ccccc2)cc1 (stereo not drawn) [TRG 2409-224]

IC50 (MCR-1; [1]): 10.5 µM
IC50 (MCR-4; [2]): 1.67 µM
Structure (SMILES): COc1ccc(CNCC2c3ccccc3CN(CCCCC(N)CN)C2c2cc(C(F)(F)F)cc(C(F)(F)F)c2)cc1 (stereo not drawn) [TRG 2414-61]

IC50 (MCR-1; [1]): 12.2 µM
IC50 (MCR-4; [2]): 6.91 µM
Structure (SMILES): COc1ccc(CNCC2c3ccccc3CN(CCCCC(CN)NCCc3ccccc3)C2c2cccc(Oc3ccccc3)c2)cc1 (stereo not drawn) [TRG 2414-102]

IC50 (MCR-1; [5]): 1.46 µM
IC50 (MCR-4; [5]): 2.5 µM
Structure (SMILES): CNC(CN)CCCN1Cc2ccccc2C(CNC2CCCCC2)C1c1ccc(Cl)cc1Cl (stereo not drawn) [TRG 2408-70]

IC50 (MCR-1; TRG 2405 section, inhibition of binding of 125I-HP 467, HEK 293 cells expressing MCR-1): 5.16 µM
% Disp. MC-1 10 μM (MCR-1; first of duplicate): 65.2%
% Disp. MC-1 10 μM (MCR-1; second of duplicate): 63%
IC50 (MCR-4; TRG 2405 section, inhibition of binding of 125I-HP 467, HEK 293 cells expressing MCR-4): 3.1 µM
Structure (SMILES): CNC(CN)CN1Cc2ccccc2C(CNC2CCCCC2)C1c1cccc(Oc2ccc(OC)cc2)c1 (stereo not drawn) [TRG 2405-124]

IC50 (MCR-1; [6]): 0.07 µM
IC50 (MCR-4; [7]): 9.59 µM
Structure (SMILES): CCCCNc1ccc(C2C(CN)c3ccccc3CN2CCCC(CN)NCC)cc1 (stereo not drawn) [TRG 2411-218]

IC50 (MCR-1; [1]): 7.98 µM
IC50 (MCR-4; [2]): 11 µM
Structure (SMILES): CCCOc1ccc(C2C(CNCc3ccccc3C(F)(F)F)c3ccccc3CN2CCCCC(N)CN)cc1 (stereo not drawn) [TRG 2414-161]

IC50 (MCR-1; [8]): 0.94 µM
IC50 (MCR-4; [8]): 0.69 µM
Structure (SMILES): CNC(CN)CCCCN1Cc2ccccc2C(CNCCc2ccccc2OC)C1c1ccc(Cl)cc1Cl (mixture of isomers) [TRG 2407-23]

IC50 (MCR-1; [5]): 0.61 µM
IC50 (MCR-4; [5]): 26.8 µM
Structure (SMILES): CNCCN[C@@H](CN)CCCCN1Cc2ccccc2C(CNC2CCCCC2)C1c1ccc(-c2ccccc2)cc1 (stereo partly drawn) [TRG 2408-54]

IC50 (MCR-1; [6]): 0.093 µM
IC50 (MCR-4; [7]): 4.32 µM
Structure (SMILES): CCNc1ccc(C2C(CN)c3ccccc3CN2CCCC(CN)NCCCCNC(C)(C)C)cc1 (stereo not drawn) [TRG 2419-10]

IC50 (MCR-1; [1]): 11.8 µM
IC50 (MCR-4; [2]): 16.2 µM
Structure (SMILES): CCOc1ccccc1CNCC1c2ccccc2CN(CCCCC(CN)NCCc2ccccc2)C1c1cccc(Oc2ccccc2)c1 (stereo not drawn) [TRG 2414-86]

IC50 (MCR-1; [3]): 0.25 µM
IC50 (MCR-4; [4]): 1.17 µM
Structure (SMILES): CCCCNc1ccc(C2C(CNC3CCCCC3)c3ccccc3CN2CCCCC(CN)NCCc2ccccc2)cc1 (stereo not drawn) [TRG 2411-90]
